ChEMBL document CHEMBL3046904, “Synthesis, characterization, bioactivity, and POM analyses of isothiochromeno[3,4-e][1,2]oxazines” (2013)

Legend:
Format in all cases: functional
MCF7 = assay: Cytotoxicity against Homo sapiens (human) MCF7 assessed as cell growth at 10^-4 M after 48 hr by Alamar Blue assay; conditions: MCF7, 48 h, read-out: Activity
SF-268 = assay: Cytotoxicity against Homo sapiens (human) SF268 assessed as cell growth at 10^-4 M after 48 hr by Alamar Blue assay; conditions: SF-268, 48 h, read-out: Activity
NCI-H460 = assay: Cytotoxicity against Homo sapiens (human) NCI-H460 assessed as cell growth at 10^-4 M after 48 hr by Alamar Blue assay; conditions: NCI-H460, 48 h, read-out: Activity

Compound	growth at 100 µM (MCF7) [%]	growth at 100 µM (SF-268) [%]	growth at 100 µM (NCI-H460) [%]
COc1ccc(C2=C3SC=c4ccccc4=C3ON=C2c2ccc(C)cc2)cc1	98	103	84
O=[N+]([O-])c1ccc(C2=NOC3=c4ccccc4=CSC3=C2c2ccccc2)cc1	62	101	100
Clc1ccc(C2=NOC3=c4ccccc4=CSC3=C2c2ccccc2)cc1	95	95	92
